Literature values as cited in US20160175482A1, “COMPOSITION AND DELIVERY SYSTEM” (LOCATE THERAPEUTICS LIMITED, priority 2013, published 2016).

With `Cc1ccc(C)c(N=Nc2cc(C)c(N=Nc3c(O)ccc4ccccc34)cc2C)c1` [Oil Red-O] as the compound, how does the “log P” value read?
The value was 6.85.
